Test results reported in PubChem BioAssay (NCI).
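How tested: cells in 96-well plates exposed to compound for 48 hours at five concentrations. TGI denotes the concentration required for complete inhibition of growth.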

Experiments:
Test in all cases: NCI-60 cell line screen, 48 h
OVCAR-4 ovarian = tested on: OVCAR-4 ovarian
786-0 renal = tested on: 786-0 renal
NCI-H226 lung = tested on: NCI-H226 lung
HL-60(TB) leukemia = tested on: HL-60(TB) leukemia
TK-10 renal = tested on: TK-10 renal
LOX IMVI melanoma = tested on: LOX IMVI melanoma
SK-OV-3 ovarian = tested on: SK-OV-3 ovarian
SNB-19 CNS = tested on: SNB-19 CNS
UACC-62 melanoma = tested on: UACC-62 melanoma
K-562 leukemia = tested on: K-562 leukemia
IGROV1 ovarian = tested on: IGROV1 ovarian
NCI-H460 lung = tested on: NCI-H460 lung
RXF 393 renal = tested on: RXF 393 renal
SF-539 CNS = tested on: SF-539 CNS
RPMI-8226 leukemia = tested on: RPMI-8226 leukemia
MOLT-4 leukemia = tested on: MOLT-4 leukemia
OVCAR-3 ovarian = tested on: OVCAR-3 ovarian
MDA-N = tested on: MDA-N
NCI/ADR-RES ovarian = tested on: NCI/ADR-RES ovarian
BT-549 breast = tested on: BT-549 breast

SMILES	TGI (OVCAR-4 ovarian)	TGI (786-0 renal)	TGI (NCI-H226 lung)	TGI (HL-60(TB) leukemia)	TGI (TK-10 renal)	TGI (LOX IMVI melanoma)	TGI (SK-OV-3 ovarian)	TGI (SNB-19 CNS)	TGI (UACC-62 melanoma)	TGI (K-562 leukemia)	TGI (IGROV1 ovarian)	TGI (NCI-H460 lung)	TGI (RXF 393 renal)	TGI (SF-539 CNS)	TGI (RPMI-8226 leukemia)	TGI (MOLT-4 leukemia)	TGI (OVCAR-3 ovarian)	TGI (MDA-N)	TGI (NCI/ADR-RES ovarian)	TGI (BT-549 breast)
C=C1C(=O)OC2/C=C(\C)C(O)/C=C\C(C)(O)CC(OC(=O)/C(C)=C/C)C12 (stereo unspecified)	> 100 µM	38 µM	> 100 µM	> 64 µM	> 100 µM	36.6 µM	> 100 µM	98.8 µM	32.6 µM	> 84.6 µM	> 100 µM	> 100 µM	42.6 µM	20.7 µM	> 68.6 µM	53.8 µM	46.2 µM			
C[C@@H]1C(O)CC[C@H](C)C12CC=CC2=O (stereo partly specified)	> 100 µM	> 100 µM	> 100 µM	> 100 µM	> 100 µM	> 100 µM	> 100 µM	> 100 µM	> 100 µM	> 100 µM	> 100 µM	> 100 µM	> 100 µM	> 100 µM	> 100 µM	> 100 µM	> 100 µM	> 100 µM	> 100 µM	
COc1cc2c(cc1OC)C(Cl)C(c1cc(OC)c(OC)c(OC)c1)=C2Cl (stereo unspecified)			41.4 µM	44.3 µM	62.2 µM	30.2 µM	56.2 µM	37.2 µM	28.9 µM	> 100 µM	54.7 µM	32.4 µM		26.7 µM	37 µM	29.9 µM	31.9 µM			
CCN(CC)CCNc1ccc(C)c2sc3ccc(O)cc3c(=O)c12	6.12 µM	2.01 µM	2 µM	0.979 µM	9.95 µM	2.18 µM	5.59 µM	15.6 µM	2.21 µM	3.62 µM	5.19 µM	1.37 µM	5.82 µM	2.5 µM	4.95 µM	1.16 µM	4.4 µM			
Cc1ccc(S(=O)(=O)N/N=C2\C=C[C@]3(CC2)C(=O)N(C)c2ccccc23)cc1	> 100 µM	> 100 µM	> 100 µM	> 100 µM		> 100 µM	> 100 µM	> 100 µM	> 100 µM	> 100 µM	> 100 µM	> 100 µM	> 100 µM		> 100 µM	> 100 µM	> 100 µM	> 100 µM	> 100 µM	
S=C(Nc1ccc(Br)cn1)NC12CC3CC(CC(C3)C1)C2	> 100 µM	21.3 µM	64.8 µM				67.6 µM	25.9 µM	43.4 µM	> 100 µM	30.2 µM	> 100 µM	37 µM	33.7 µM	> 100 µM	67.6 µM	> 100 µM	47.7 µM	55.7 µM	
COc1cc(CC2c3cc(OC)c(OC)cc3CCN2C)c(Oc2cc3c(cc2OC)-c2c(OC)c(OC)c(OC)c4c2C(C3)N(C)CC4)cc1OC (stereo unspecified)	33.1 µM	21.5 µM	32.7 µM	> 100 µM	29.5 µM	22.6 µM	35 µM	43.3 µM	29.1 µM	> 30.5 µM	29.9 µM	32.7 µM	14.9 µM	25.8 µM	> 45.7 µM	> 42.5 µM	28.2 µM			
CC(C)(C)C=C=C(C(C)(C)C)P(=O)(O)O	> 100 µM	> 100 µM	> 100 µM	> 100 µM	> 100 µM	> 100 µM	> 100 µM	> 100 µM	> 100 µM	> 100 µM	> 100 µM	> 100 µM	> 100 µM	> 100 µM	> 100 µM		> 100 µM	> 100 µM	> 100 µM	
Cc1nc(-c2nc([N+](=O)[O-])c([N+](=O)[O-])[nH]2)cs1	> 100 µM		> 100 µM	> 100 µM	> 100 µM	> 100 µM	> 100 µM	> 100 µM	> 100 µM	> 100 µM	> 100 µM	> 100 µM	> 100 µM	> 100 µM	> 100 µM	> 100 µM	> 100 µM			
CCC1(C)N=C(C(N)=O)c2ncn(N=C(C)C)c2N1 (stereo unspecified)	> 100 µM	> 100 µM	> 100 µM	> 100 µM	> 100 µM	> 100 µM	> 100 µM	> 100 µM	> 100 µM	> 100 µM	> 100 µM	> 100 µM	> 100 µM	> 100 µM	> 100 µM		> 100 µM	> 100 µM	> 100 µM	
CSCCCCCCCCCCOc1ccc(C=C2C(=C(C#N)C#N)c3ccccc3C2=C(C#N)C#N)cc1	41.3 µM	37.4 µM	79.9 µM	4.34 µM	36.1 µM	61.7 µM	32.1 µM			> 100 µM	34.7 µM	32.2 µM	35.1 µM	37.3 µM	> 100 µM	64.5 µM	30 µM	38.3 µM	75.7 µM	
CC(C)[Si](OC1=CCCCCC12C(=O)N(C)c1ccccc12)(C(C)C)C(C)C (stereo unspecified)	> 100 µM	37.7 µM	39 µM	38.9 µM	80.9 µM	35.7 µM	46.6 µM	29.5 µM	59.2 µM	> 100 µM	62.9 µM	38.4 µM	21.8 µM	41.7 µM	36.5 µM	> 100 µM	31.8 µM	79.7 µM	42.8 µM	
O=C1c2cc(CCl)sc2C(=O)c2ccsc21	0.336 µM	2.88 µM	3.1 µM	0.497 µM	3.41 µM	0.149 µM	3.36 µM	0.527 µM	0.319 µM	0.478 µM	2.83 µM	2.63 µM	0.883 µM	0.553 µM	0.558 µM	0.47 µM	0.52 µM	0.0343 µM	0.468 µM	
COc1ccc(NC2=NCCO2)c2ccccc12	> 10 µM		> 10 µM	> 10 µM	> 10 µM	> 10 µM	> 10 µM	> 10 µM	> 10 µM	> 10 µM	> 10 µM	> 10 µM	> 10 µM	> 10 µM	> 10 µM	> 10 µM	> 10 µM	> 10 µM	> 10 µM	
Cc1ccc(/C=N/Nc2ncccn2)s1	> 100 µM	> 100 µM	> 100 µM		> 100 µM	> 100 µM	> 100 µM	> 100 µM	> 100 µM		> 100 µM		> 100 µM	> 100 µM	> 100 µM		> 100 µM	> 100 µM	> 100 µM	
CN1CCN(c2ccc3[nH]c(C4=C(O)c5nc(CO)n(C)c5C(=O)C4=O)nc3n2)CC1	> 100 µM	> 100 µM	> 100 µM	> 100 µM		> 100 µM	> 100 µM	> 100 µM	> 100 µM	> 100 µM	> 100 µM	> 100 µM	91.4 µM	> 100 µM	> 100 µM	> 100 µM	> 100 µM		> 100 µM	> 100 µM
O=C(NCc1ccccc1)c1cnc(Cl)cn1	> 100 µM	> 100 µM	> 100 µM	> 100 µM	> 100 µM	> 100 µM	> 100 µM	> 100 µM	> 100 µM		> 100 µM	> 100 µM	> 100 µM	> 100 µM	> 100 µM	> 100 µM	> 100 µM		44.2 µM	
Nc1ccn(C2OC(COP(=O)(O)Oc3ccccc3)C(O)C2O)c(=O)n1 (stereo unspecified)	> 100 µM		> 100 µM	> 100 µM		> 100 µM	> 100 µM	> 100 µM	> 100 µM	> 100 µM	> 100 µM	> 100 µM	> 100 µM	> 100 µM	> 100 µM	> 100 µM	> 100 µM		> 100 µM	
CSC(=NCCN=C(NS(=O)(=O)c1ccc(Cl)cc1)SC)NS(=O)(=O)c1ccc(Cl)cc1	> 100 µM	> 100 µM		> 100 µM	> 100 µM	> 100 µM	59.1 µM	> 100 µM	> 100 µM	> 100 µM	> 100 µM	> 100 µM		> 100 µM	> 100 µM	> 100 µM	> 100 µM	> 100 µM	> 100 µM	
CC(C)(C)OC(=O)N1CCC23CCCC2C(=O)CC=C13 (stereo unspecified)	> 100 µM	> 100 µM	> 100 µM	> 100 µM	> 100 µM	> 100 µM	> 100 µM	> 100 µM	> 100 µM	> 100 µM	> 100 µM	> 100 µM	> 100 µM	> 100 µM		> 100 µM	> 100 µM		> 100 µM	> 100 µM
CC(C)[Si]1(C(C)C)OCC2OC(n3ccc(=O)[nH]c3=O)C(O)(CO)C2O[Si](C(C)C)(C(C)C)O1 (stereo unspecified)	26.9 µM	29.3 µM	36.8 µM	> 100 µM	31.3 µM	30.7 µM	30.2 µM	28.9 µM	29.2 µM	81.6 µM	23.9 µM		30.4 µM	32.2 µM	26.2 µM	69.1 µM	29.4 µM		30.1 µM	30.7 µM
CC(=O)c1cn(-c2ccc(Cl)cc2)c(=O)c2c(N)n[nH]c12	> 100 µM	> 100 µM	> 100 µM	> 100 µM	> 100 µM	> 100 µM	> 100 µM	> 100 µM	> 100 µM	> 100 µM	> 100 µM	> 100 µM	> 100 µM		> 100 µM	> 100 µM			> 100 µM	> 100 µM
COCN1C(=O)[C@@H]2CCCN2C(=O)c2cc([N+](=O)[O-])ccc21	> 100 µM	> 100 µM	> 100 µM		> 100 µM	> 100 µM	> 100 µM	> 100 µM	> 100 µM		> 100 µM		39.9 µM	> 100 µM					> 100 µM	> 100 µM
C/C(=N\Nc1ccc([N+](=O)[O-])cc1)C(=O)N(C)Nc1ccccc1	> 100 µM	> 100 µM	> 100 µM	> 100 µM	> 100 µM	> 100 µM	> 100 µM	> 100 µM	> 100 µM	> 100 µM	> 100 µM	> 100 µM	> 100 µM	> 100 µM	> 100 µM	> 100 µM	> 100 µM			
Nc1ncc(Cc2nc3ccccc3s2)s1	> 100 µM	> 100 µM	92.8 µM	> 100 µM	> 100 µM	> 100 µM	> 100 µM	> 100 µM	> 100 µM	> 100 µM	> 100 µM	> 100 µM	> 100 µM	> 100 µM	> 100 µM	> 100 µM	> 100 µM		> 100 µM	
Cc1ccc2[nH]c3c(C)c4ccncc4c(C)c3c2c1	2.56 µM		7.59 µM	3.42 µM	14.2 µM	4.77 µM	4.38 µM	2.62 µM	3.26 µM	2.52 µM	2.44 µM	1.77 µM	0.513 µM	2.68 µM	4.88 µM	1.95 µM	3.27 µM		2.24 µM	
COc1cc2c(c(OC)c1OC)C(=O)CC2N (stereo unspecified)	> 100 µM	> 100 µM	> 100 µM	> 100 µM	> 100 µM	> 100 µM	> 100 µM	> 100 µM	> 100 µM	> 100 µM	> 100 µM	> 100 µM		> 100 µM	> 100 µM	> 100 µM	> 100 µM		> 100 µM	> 100 µM
